The results in this text go back to the supplement of paper PMC10307832.

Test in all cases: relative viability (nuclei count vs DMSO), 5 days (fraction); higher = more cells survive
Compound in the experiment “Pictilisib + Phenformin”: CS(=O)(=O)N1CCN(Cc2cc3nc(-c4cccc5[nH]ncc45)nc(N4CCOCC4)c3s2)CC1 [Pictilisib] + N=C(N)NC(=N)NCCc1ccccc1 [Phenformin] (partner 250 µM)
The procedure, abridged:
(§1)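 Cells from lung cancer lines were seeded into 1536-well plates and, one day later, dosed by pin tool. Treatments were either a single drug or a fixed dose of an anchor drug with five library-drug doses (not always all listed) in √10 steps. After 5 days, nuclei were stained in a one-step fixation (final 0.05% Triton X-100, 1% formaldehyde, 1 ug/ml Hoechst) and counted on 4× images, and relative viability is the treated-to-vehicle nuclei ratio, as the median of duplicate plates.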

Compound in the experiment “Pictilisib + Pemetrexed”: CS(=O)(=O)N1CCN(Cc2cc3nc(-c4cccc5[nH]ncc45)nc(N4CCOCC4)c3s2)CC1 [Pictilisib] + Nc1nc2[nH]cc(CCc3ccc(C(=O)N[C@@H](CCC(=O)O)C(=O)O)cc3)c2c(=O)[nH]1 [Pemetrexed] (partner 0.2 µM)
The procedure, abridged: as §1

Compound in the experiment “Pictilisib + Palbociclib”: CS(=O)(=O)N1CCN(Cc2cc3nc(-c4cccc5[nH]ncc45)nc(N4CCOCC4)c3s2)CC1 [Pictilisib] + CC(=O)c1c(C)c2cnc(Nc3ccc(N4CCNCC4)cn3)nc2n(C2CCCC2)c1=O [Palbociclib] (partner 0.5 µM)
The procedure, abridged:
as §1

Compound in the experiment “Pictilisib + Olaparib”: CS(=O)(=O)N1CCN(Cc2cc3nc(-c4cccc5[nH]ncc45)nc(N4CCOCC4)c3s2)CC1 [Pictilisib] + O=C(c1cc(Cc2n[nH]c(=O)c3ccccc23)ccc1F)N1CCN(C(=O)C2CC2)CC1 [Olaparib] (partner 8 µM)
The procedure, abridged:
as §1

Compound in the experiment “MK-2206 + Crizotinib”: NC1(c2ccc(-c3nc4ccn5c(=O)[nH]nc5c4cc3-c3ccccc3)cc2)CCC1 [MK-2206] + C[C@@H](Oc1cc(-c2cnn(C3CCNCC3)c2)cnc1N)c1c(Cl)ccc(F)c1Cl [Crizotinib] (partner 1 µM)
In outline: as §1

Take NCI-H2342: the relative viability was 0.581 with Pictilisib + Phenformin (first compound 0.02 µM); 0.586 in the experiment with Pictilisib + Phenformin (first compound 0.06325 µM); 0.472 with Pictilisib + Phenformin (first compound 0.6325 µM); 0.355 in the experiment with Pictilisib + Phenformin (first compound 2 µM); 0.695 in the experiment with Pictilisib + Pemetrexed (first compound 0.02 µM); 0.782 in the experiment with Pictilisib + Pemetrexed (first compound 0.06325 µM). Moreover, the relative viability with Pictilisib + Pemetrexed (first compound 0.6325 µM) was 0.677; in the experiment with Pictilisib + Pemetrexed (first compound 2 µM), 0.528; with Pictilisib + Palbociclib (first compound 0.02 µM), 0.515; in the experiment with Pictilisib + Palbociclib (first compound 0.06325 µM) it was 0.507; with Pictilisib + Palbociclib (first compound 0.6325 µM), 0.444; in the experiment with Pictilisib + Palbociclib (first compound 2 µM) it was 0.403. Besides, the relative viability in the experiment with Pictilisib + Olaparib (first compound 0.02 µM) was 0.446; in the experiment with Pictilisib + Olaparib (first compound 0.06325 µM), 0.379; in the experiment with Pictilisib + Olaparib (first compound 0.6325 µM) it was 0.406; in the experiment with Pictilisib + Olaparib (first compound 2 µM), 0.242.

Regarding NCI-H522, the relative viability is 0.749 with Pictilisib + Phenformin (first compound 0.02 µM); 0.676 in the experiment with Pictilisib + Phenformin (first compound 0.06325 µM); 0.613 in the experiment with Pictilisib + Phenformin (first compound 0.6325 µM); 0.603 with Pictilisib + Phenformin (first compound 2 µM); 1.08 with Pictilisib + Pemetrexed (first compound 0.02 µM); 1.1 with Pictilisib + Pemetrexed (first compound 0.06325 µM). For the same cell line, the relative viability in the experiment with Pictilisib + Pemetrexed (first compound 0.6325 µM) was determined as 0.796; with Pictilisib + Pemetrexed (first compound 2 µM), 0.481; in the experiment with Pictilisib + Palbociclib (first compound 0.02 µM), 1.07; with Pictilisib + Palbociclib (first compound 0.06325 µM) it was 0.785; in the experiment with Pictilisib + Palbociclib (first compound 0.6325 µM) it was 0.833; with Pictilisib + Palbociclib (first compound 2 µM), 0.692. The relative viability in the experiment with Pictilisib + Olaparib (first compound 0.02 µM) came out at 0.619; in the experiment with Pictilisib + Olaparib (first compound 0.06325 µM), 0.663; in the experiment with Pictilisib + Olaparib (first compound 0.6325 µM), 0.561; with Pictilisib + Olaparib (first compound 2 µM) it was 0.493.

On to EBC-1, for which the relative viability with MK-2206 + Crizotinib (first compound 0.01 µM) amounted to 0.189; with MK-2206 + Crizotinib (first compound 0.03162 µM), 0.205; with MK-2206 + Crizotinib (first compound 0.3162 µM) it was 0.198; with MK-2206 + Crizotinib (first compound 1 µM) it was 0.172; with Pictilisib + Olaparib (first compound 0.02 µM), 0.681; with Pictilisib + Olaparib (first compound 0.06325 µM), 0.741. In addition, the relative viability in the experiment with Pictilisib + Olaparib (first compound 0.6325 µM) was 0.564; with Pictilisib + Olaparib (first compound 2 µM), 0.243.

On to IA-LM, for which the relative viability with MK-2206 + Crizotinib (first compound 0.03162 µM) was 0.867; with MK-2206 + Crizotinib (first compound 0.3162 µM), 0.807; with MK-2206 + Crizotinib (first compound 1 µM), 0.819; with Pictilisib + Olaparib (first compound 0.02 µM), 0.952; in the experiment with Pictilisib + Olaparib (first compound 0.06325 µM), 0.987; with Pictilisib + Olaparib (first compound 0.6325 µM), 0.792. For the same cell line, the relative viability with Pictilisib + Olaparib (first compound 2 µM) turned out to be 0.516.

Regarding NCI-H1703, the relative viability with MK-2206 + Crizotinib (first compound 0.01 µM) is 0.809; in the experiment with MK-2206 + Crizotinib (first compound 0.03162 µM) it was 0.658; with MK-2206 + Crizotinib (first compound 0.3162 µM), 0.302; in the experiment with MK-2206 + Crizotinib (first compound 1 µM), 0.511; with Pictilisib + Olaparib (first compound 0.02 µM) it was 0.471; in the experiment with Pictilisib + Olaparib (first compound 0.06325 µM), 0.378. In addition, the relative viability was 0.214 in the experiment with Pictilisib + Olaparib (first compound 0.6325 µM) and 0.122 in the experiment with Pictilisib + Olaparib (first compound 2 µM).

As to A549, the relative viability with Pictilisib + Phenformin (first compound 0.02 µM) is 0.235; with Pictilisib + Phenformin (first compound 0.06325 µM), 0.177; with Pictilisib + Phenformin (first compound 0.6325 µM) it was 0.155; in the experiment with Pictilisib + Phenformin (first compound 2 µM) it was 0.0936; in the experiment with MK-2206 + Crizotinib (first compound 0.01 µM), 0.733; with MK-2206 + Crizotinib (first compound 0.03162 µM) it was 0.744. For the same cell line, the relative viability was 0.641 with MK-2206 + Crizotinib (first compound 0.3162 µM); 0.535 in the experiment with MK-2206 + Crizotinib (first compound 1 µM); 0.441 with Pictilisib + Olaparib (first compound 0.02 µM); 0.355 with Pictilisib + Olaparib (first compound 0.06325 µM); 0.283 with Pictilisib + Olaparib (first compound 0.6325 µM); 0.211 in the experiment with Pictilisib + Olaparib (first compound 2 µM).

NCI-H727: the relative viability in the experiment with Pictilisib + Phenformin (first compound 0.02 µM) amounted to 0.564; with Pictilisib + Phenformin (first compound 0.06325 µM), 0.529; in the experiment with Pictilisib + Phenformin (first compound 0.6325 µM) it was 0.554; with Pictilisib + Phenformin (first compound 2 µM) it was 0.38; in the experiment with Pictilisib + Palbociclib (first compound 0.02 µM), 0.595; in the experiment with Pictilisib + Palbociclib (first compound 0.06325 µM), 0.65. In addition, the relative viability was 0.541 with Pictilisib + Palbociclib (first compound 0.6325 µM); 0.496 with Pictilisib + Palbociclib (first compound 2 µM); 0.809 with MK-2206 + Crizotinib (first compound 0.01 µM); 0.903 in the experiment with MK-2206 + Crizotinib (first compound 0.03162 µM); 0.666 in the experiment with MK-2206 + Crizotinib (first compound 0.3162 µM); 0.568 with MK-2206 + Crizotinib (first compound 1 µM). Also, the relative viability was determined as 0.796 with Pictilisib + Olaparib (first compound 0.02 µM), 0.801 in the experiment with Pictilisib + Olaparib (first compound 0.06325 µM), 0.72 in the experiment with Pictilisib + Olaparib (first compound 0.6325 µM) and 0.548 with Pictilisib + Olaparib (first compound 2 µM).

NCI-H1623: the relative viability is 0.646 with Pictilisib + Phenformin (first compound 0.02 µM), 0.61 in the experiment with Pictilisib + Phenformin (first compound 0.06325 µM), 0.54 with Pictilisib + Phenformin (first compound 0.6325 µM) and 0.274 with Pictilisib + Phenformin (first compound 2 µM).

Regarding NCI-H596, the relative viability is 0.697 with Pictilisib + Phenformin (first compound 0.02 µM); 0.697 with Pictilisib + Phenformin (first compound 0.06325 µM); 0.375 in the experiment with Pictilisib + Phenformin (first compound 0.6325 µM); 0.305 with Pictilisib + Phenformin (first compound 2 µM); 0.472 with Pictilisib + Pemetrexed (first compound 0.02 µM); 0.508 with Pictilisib + Pemetrexed (first compound 0.06325 µM). In addition, the relative viability stood at 0.509 in the experiment with Pictilisib + Pemetrexed (first compound 0.6325 µM); 0.318 in the experiment with Pictilisib + Pemetrexed (first compound 2 µM); 0.978 with MK-2206 + Crizotinib (first compound 0.01 µM); 1 with MK-2206 + Crizotinib (first compound 0.03162 µM); 0.898 with MK-2206 + Crizotinib (first compound 0.3162 µM); 0.736 with MK-2206 + Crizotinib (first compound 1 µM). Also, the relative viability worked out at 0.621 with Pictilisib + Olaparib (first compound 0.02 µM), 0.642 in the experiment with Pictilisib + Olaparib (first compound 0.06325 µM), 0.567 in the experiment with Pictilisib + Olaparib (first compound 0.6325 µM) and 0.338 in the experiment with Pictilisib + Olaparib (first compound 2 µM).

In the case of NCI-H1563, the relative viability with Pictilisib + Phenformin (first compound 0.02 µM) came to 0.663; in the experiment with Pictilisib + Phenformin (first compound 0.06325 µM) it was 0.692; with Pictilisib + Phenformin (first compound 0.6325 µM) it was 0.56; with Pictilisib + Phenformin (first compound 2 µM) it was 0.501; in the experiment with Pictilisib + Pemetrexed (first compound 0.02 µM), 0.742; in the experiment with Pictilisib + Pemetrexed (first compound 0.06325 µM), 0.764. Also, the relative viability with Pictilisib + Pemetrexed (first compound 0.6325 µM) was 0.635; in the experiment with Pictilisib + Pemetrexed (first compound 2 µM), 0.45; in the experiment with MK-2206 + Crizotinib (first compound 0.01 µM), 0.771; with MK-2206 + Crizotinib (first compound 0.03162 µM), 0.828; in the experiment with MK-2206 + Crizotinib (first compound 0.3162 µM) it was 0.75; with MK-2206 + Crizotinib (first compound 1 µM) it was 0.604.

NCI-H1395: the relative viability with Pictilisib + Phenformin (first compound 0.02 µM) amounted to 0.453; with Pictilisib + Phenformin (first compound 0.06325 µM), 0.425; with Pictilisib + Phenformin (first compound 0.6325 µM) it was 0.386; with Pictilisib + Phenformin (first compound 2 µM), 0.399; with Pictilisib + Pemetrexed (first compound 0.02 µM), 1.01; with Pictilisib + Pemetrexed (first compound 0.06325 µM), 0.905. Besides, the relative viability amounted to 0.745 in the experiment with Pictilisib + Pemetrexed (first compound 0.6325 µM); 0.373 with Pictilisib + Pemetrexed (first compound 2 µM); 0.657 with Pictilisib + Palbociclib (first compound 0.02 µM); 0.696 with Pictilisib + Palbociclib (first compound 0.06325 µM); 0.515 with Pictilisib + Palbociclib (first compound 0.6325 µM); 0.412 with Pictilisib + Palbociclib (first compound 2 µM). The relative viability with Pictilisib + Olaparib (first compound 0.02 µM) turned out to be 0.514; with Pictilisib + Olaparib (first compound 0.06325 µM), 0.439; in the experiment with Pictilisib + Olaparib (first compound 0.6325 µM), 0.367; with Pictilisib + Olaparib (first compound 2 µM), 0.367.

In the case of ABC-1, the relative viability with Pictilisib + Phenformin (first compound 0.02 µM) worked out at 0.254; with Pictilisib + Phenformin (first compound 0.06325 µM), 0.214; with Pictilisib + Phenformin (first compound 0.6325 µM) it was 0.195; with Pictilisib + Phenformin (first compound 2 µM) it was 0.209; with Pictilisib + Palbociclib (first compound 0.02 µM), 0.683; in the experiment with Pictilisib + Palbociclib (first compound 0.06325 µM), 0.583. Moreover, the relative viability was determined as 0.469 with Pictilisib + Palbociclib (first compound 0.6325 µM); 0.416 with Pictilisib + Palbociclib (first compound 2 µM); 1.3 with MK-2206 + Crizotinib (first compound 0.01 µM); 1.26 with MK-2206 + Crizotinib (first compound 0.03162 µM); 1.14 with MK-2206 + Crizotinib (first compound 0.3162 µM); 1.02 with MK-2206 + Crizotinib (first compound 1 µM). In addition, the relative viability with Pictilisib + Olaparib (first compound 0.02 µM) was 0.781; with Pictilisib + Olaparib (first compound 0.06325 µM) it was 0.721; with Pictilisib + Olaparib (first compound 0.6325 µM), 0.79; with Pictilisib + Olaparib (first compound 2 µM), 0.721.
